Laboratory results as given in PMC5159881 (Nature Communications, 2016).
Values joined by “and” are separate entries in the source; they are usually repeats but may differ in a detail not shown here. Identical values can stand only once.

What was measured:
HSP90 and HSP70 = assay: Western blotting of HSP90 and HSP70 protein levels in LNCaP and 22RV1 cells; type: cell-based, human; details: 12 h
in vivo = details: rat; for half-life: plasma
Method: Pharmacokinetic studies in vivo[37] and CYP-associated metabolic studies in vitro[56] were performed using the method reported previously in our laboratory. […] The incubation system, sample preparation and chromatography conditions are as described previously.
A simple and sensitive method for the determination of AIL in plasma was developed, using high-performance liquid chromatography-tandem mass spectrometry (HPLC-MS/MS). Brusatol was used as an internal standard. […] The details of this HPLC-MS/MS method and sample preparation are described in our previous study.
The statistical analysis was performed by SPSS 22.0 software. The differences between control group and experimental groups were determined by one-way analysis of variance. Since treatment and time course was investigated, two-way analysis of variance followed by post hoc test was also applied. Data were expressed as mean and s.d., and P<0.05 was considered significant. Pharmacokinetic parameters were calculated by WinNonlin software version 5.2.1 (Pharsight Corporation, Mountain View, USA) based on noncompartmental analysis. […]
Pharmacokinetic study of ailanthone in rats
Sprague-Dawley rats (purchased from Shanghai SLAC laboratory animal Co. Ltd., Shanghai, China) were fasted for 12 h with free access to water prior to the pharmacokinetic study. The rats were randomized into two groups for oral administration (5mg/kg) and intravenous injection (1mg/kg). Blood samples were collected from the orbital plexus into heparinized centrifuge tubes at fifteen different time points between 5 min to 36 h for the oral administration group and nine time points between 5 min to 6 h for the intravenous one. The pharmacokinetic parameters were calculated by WinNonlin software version 5.2.1 based on noncompartmental analysis. Oral bioavailability was calculated as F (%) = AUC0-∞(p.o.) / AUC0-∞(i.v.) × Dose (i.v.) / Dose (p.o.). […]
Supplementary Figure 9C). […]

AR-FL = AR-FL (Homo sapiens, UniProt P10275); assay: MMTV-luc dual luciferase reporter assay, DHT-induced AR activity in 22RV1 cells; type: cell-based; details: 22RV1, DHT +, compound 10 µM, 12 h, mean ± s.d., n=3
Chain of AR-FL (P10275 whole entry): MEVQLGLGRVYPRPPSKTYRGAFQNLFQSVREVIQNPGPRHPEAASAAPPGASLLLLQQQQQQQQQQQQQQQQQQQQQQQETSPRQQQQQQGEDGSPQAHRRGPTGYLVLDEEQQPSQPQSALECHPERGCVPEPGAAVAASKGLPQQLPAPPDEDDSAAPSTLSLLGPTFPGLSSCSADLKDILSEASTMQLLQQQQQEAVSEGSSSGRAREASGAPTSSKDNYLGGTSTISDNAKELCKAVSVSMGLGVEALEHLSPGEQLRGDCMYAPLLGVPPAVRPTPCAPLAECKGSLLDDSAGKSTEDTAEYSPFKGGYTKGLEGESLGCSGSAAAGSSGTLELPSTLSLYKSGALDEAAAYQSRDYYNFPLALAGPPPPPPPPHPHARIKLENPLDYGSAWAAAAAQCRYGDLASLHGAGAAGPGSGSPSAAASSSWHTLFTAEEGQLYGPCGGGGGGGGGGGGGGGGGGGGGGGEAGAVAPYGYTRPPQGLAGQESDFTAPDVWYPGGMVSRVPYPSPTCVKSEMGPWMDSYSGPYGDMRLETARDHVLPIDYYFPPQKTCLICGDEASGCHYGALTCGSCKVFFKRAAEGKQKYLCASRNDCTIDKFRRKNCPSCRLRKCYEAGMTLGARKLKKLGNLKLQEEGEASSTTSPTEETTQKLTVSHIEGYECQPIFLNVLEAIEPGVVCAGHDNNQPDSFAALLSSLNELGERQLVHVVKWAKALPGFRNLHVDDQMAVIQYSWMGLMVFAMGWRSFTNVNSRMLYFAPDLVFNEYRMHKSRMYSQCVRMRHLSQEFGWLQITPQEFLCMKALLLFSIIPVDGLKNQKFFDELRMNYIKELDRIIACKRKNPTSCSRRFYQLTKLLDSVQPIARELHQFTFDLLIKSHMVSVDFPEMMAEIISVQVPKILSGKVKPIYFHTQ
Method: (§1) Renilla and firefly activities were then determined by luminometry using the Dual-Luciferase Reporter Assay System (Promega) and the ratio calculated. Results were expressed as the ratio of firefly to Renilla luciferase activity.
After transient transfection of MMTV-luc and Renilla-luc in 22RV1, the MMTV-luc
activities were stimulated by androgen DHT. Then cells were treated with indicated
expressed as the ratio of luciferase activity. Values are presented as mean ± s.d., n =

AR1-651 = target: T1, AR1-651 (Homo sapiens, UniProt P10275); assay: MMTV-luc dual luciferase reporter assay, AR1-651-induced activity in 22RV1 cells; type: cell-based; details: for MMTV-luc Activity (%), AR1-651-induced: 22RV1, AR1-651 +, 12 h; for activity at 10 µM: 22Rv1, read-out: MMTV-luc Activity (%), AR1-651-induced, 22RV1, AR1-651 +, compound 10 µM, 12 h, mean ± s.d., n=3;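 on all read-outs here: luminometric read-out of firefly luciferase signal normalized to Renilla luciferase signal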
T1 construct: FLAG; expressed in transfected cells; host or cells: 22RV1
T1 sequence (P10275 1-651): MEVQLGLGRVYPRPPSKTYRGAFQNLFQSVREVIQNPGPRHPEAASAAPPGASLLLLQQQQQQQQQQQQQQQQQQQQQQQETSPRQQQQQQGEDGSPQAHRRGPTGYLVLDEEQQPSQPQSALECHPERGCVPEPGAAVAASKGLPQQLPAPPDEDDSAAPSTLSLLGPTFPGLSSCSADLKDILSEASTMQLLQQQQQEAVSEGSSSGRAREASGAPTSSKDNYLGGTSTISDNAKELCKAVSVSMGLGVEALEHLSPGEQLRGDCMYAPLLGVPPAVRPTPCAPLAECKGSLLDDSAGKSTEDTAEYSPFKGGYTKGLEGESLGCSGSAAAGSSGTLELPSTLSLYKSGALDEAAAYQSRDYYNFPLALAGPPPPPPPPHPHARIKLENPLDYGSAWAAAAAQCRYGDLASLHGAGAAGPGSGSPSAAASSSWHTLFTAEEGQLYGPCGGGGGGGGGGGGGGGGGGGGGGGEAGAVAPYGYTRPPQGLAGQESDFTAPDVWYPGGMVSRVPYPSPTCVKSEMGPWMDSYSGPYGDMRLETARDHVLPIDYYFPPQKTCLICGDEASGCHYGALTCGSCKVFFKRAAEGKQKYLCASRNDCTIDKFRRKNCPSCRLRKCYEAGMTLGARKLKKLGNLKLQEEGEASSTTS
Method: as §1

LNCaP-MDV3100-R cells = assay: SRB cell growth assay, LNCaP-MDV3100-R; type: cell-based, human; details: 72 h, 20 μM
Method: Cell growth was determined by SRB assay.
the SRB assay (n = 5). The half maximal inhibitory concentration (IC50) was calculated using GraphPad Prism 5.0 (GraphPad, San Diego, CA).

c4-2b cells = assay: SRB cell growth assay, c4-2b; details: R1881, 96 h, 10 μM
LNCaP cells = assay: SRB cell growth assay, LNCaP; details: androgen-starved LNCaP, 0.1 nM R1881, 96 h; 10 μM BIC, 10 μM MDV, 0.1-0.4 μM AIL
22RV1 xenografts = assay: 22RV1 subcutaneous xenograft in BALB/c-nude mice; type: in vivo, mouse; details: 10 mg kg^−1 per day BIC or 2 mg kg^−1 per day AIL, i.p.
22RV1 cells = assay: SRB cell growth assay, 22RV1; details: 22RV1, R1881, 96 h, 10 μM
LNCaP xenografts = assay: LNCaP subcutaneous xenograft in BALB/c-nude mice; type: in vivo, mouse; details: 10 mg kg^−1 per day BIC or 2 mg kg^−1 per day AIL, i.p.
Method: (§2) (a–c) 22RV1 (a), LNCaP (b) and VCaP (c) cells suspended in 0.1 ml PBS (22RV1) or matrigel (LNCaP, VCaP) were injected into the right flank of BALB/c-nude mice. Androgen containing blocks were subcutaneously inserted into each mouse in the LNCaP and VCaP xenograft models. […] The control group was injected with DMSO. Tumour volume and the mouse body weight were measured twice per week.
(§3) BALB/c-nude mice (6–8-weekold, male) were purchased from the Sino-British Sippr/BK Lab Animal Co., Ltd (Shanghai, China) and maintained under pathogen-free conditions. The animal use protocol was approved by the Institutional Animal Care and Use Committee of East China Normal University. The 22RV1, LNCaP and VCaP xenograft tumour models were developed by injecting 3 × 10^6 22RV1 cells or 5 × 10^6 LNCaP or VCaP cells in suspension into the right flank of a BALB/c-nude mouse; cells were suspended in 100 μl PBS or 50% matrigel (LNCaP and VCaP), respectively. Specifically for LNCaP and VCaP cells, continuous release testosterone pellets (15 mg testosterone per pellet, Sigma-Aldrich) were implanted subcutaneously to stimulate the growth of LNCaP and VCaP xenografts. […] The tumour volume and mouse body weight were measured twice a week. The tumour volume was calculated using the following equation: tumour volume (V)=length × width × width × 0.52. […]
(§4) Tumor volume and the mouse body weight were measured once a week. […]

PSA mRNA = assay: Quantitative-PCR of PSA mRNA in 22RV1 cells; details: 12 h
Method: Total RNA was extracted using TRIzol (Takara, Japan) according to the manufacturer's instructions. One microgram of total RNA was used for complementary DNA synthesis using a cDNA reverse transcription kit (Takara, Japan). Real-time PCR was performed in triplicate using gene-specific primers on a Stratagene Mx3005P PCR system (Agilent Technologies) machine. The mRNA expression levels were normalized to β-actin expression or GAPDH.

[1] = system: 22RV1-luc orthotopic xenografts; assay: Orthotopic castration-resistant prostate cancer model (22RV1-luc, castrated mice); type: in vivo, mouse; details: i.p. once per day, 28 days, AIL 2 mg kg^−1 (95% CI 70–95%), MDV 10 mg kg^−1 (95% CI 0–36%)
Method: (d) Male BALB/c-nude mice were anaesthetized, and the dorsolateral prostate was injected with 22RV1-luc cells in matrigel. […] Tumours were imaged every week to determine local tumour growth and evidence of tumour cell dissemination. Representative images of three mice per group were illustrated (n=5). (e) After 28 days, mice were killed and local tumours and viscera of the mice were imaged to determine tumour growth and evidence of tumour cell dissemination.
For orthotopic castration-resistant prostate cancer xenografts, male BALB/c-nude mice (8–9 weeks of age) were anaesthetized using 150 mg kg^−1 2, 2, 2-tribromethanol plus 350 mg kg^−1 tert-amyl alcohol and then 5 × 10^5 22RV1-luc cells suspended in 30 μl 50% matrigel were surgically injected into the dorsolateral prostate lobes. One week after injection, the tumour-bearing mice were castrated and randomly assigned to three groups. […] Prostate tumour growth and local metastasis were monitored weekly using the IVIS Imaging System (Xenogen Corporation, Alameda, CA). Images and measurements of bioluminescent signals were acquired and analysed using Living Image and Xenogen software[52].

VCaP xenografts = assay: VCaP subcutaneous xenograft in BALB/c-nude mice; type: in vivo, mouse; details: 2 mg/kg AIL or 10 mg/kg MDV, i.p.
Method: as §2, §3, §4

[2] = Sprague-Dawley, in vivo, iv, 1 mg/kg
[3] = Sprague-Dawley, in vivo, po, 5 mg/kg
[4] = compound 10 µM, mean ± s.d., n=3

C=CCNC1=C2C[C@@H](C)C[C@H](OC)[C@H](O)[C@@H](C)/C=C(\C)[C@H](OC(N)=O)[C@@H](OC)/C=C\C=C(/C)C(=O)NC(=CC1=O)C2=O [17-AAG]
HSP90 and HSP70 protein levels (HSP90 and HSP70): induced upregulation

C=C1[C@@H](O)[C@]2(O)OC[C@]34[C@H]2[C@@]2(C)[C@H](O)C(=O)C=C(C)[C@@H]2C[C@H]3OC(=O)C[C@@H]14 [AIL, Ailanthone]
bioavailability (in vivo; Sprague-Dawley, in vivo): 25.7%
AUC(0-inf) (in vivo; [2]): 1030 ng·h/mL
AUC(0-t) (in vivo; [2]): 965 ng·h/mL
C0 (in vivo; [2]): 1650 ng/mL and 4.39 µM
AUC(0-inf) (in vivo; [3]): 1320 ng·h/mL
AUC(0-t) (in vivo; [3]): 1120 ng·h/mL
Cmax (in vivo; [3]): 87 ng/mL and 231 nM
Tmax (in vivo; [3]): 0.388 h
half-life (in vivo; iv, i.v. 1 mg kg^−1, n=6, mean±s.d.): 1.89 ± 0.66 h
half-life (in vivo; po, p.o. 5 mg kg^−1, n=6, mean±s.d.): 12.2 ± 2.6 h

O=C1CCC[C@@H]2[C@H]3CCC[N@+]4([O-])CCC[C@@H](CN12)[C@@H]34 [Ammothamnine]
MMTV-luc Activity (%), DHT-induced (AR-FL): 119.1±20.9%
MMTV-luc Activity (%), AR1-651-induced (AR1-651; [4]): 105.7%

CC(O)(CS(=O)(=O)c1ccc(F)cc1)C(=O)Nc1ccc(C#N)c(C(F)(F)F)c1 (centres unmarked) [BIC, bicalutamide]
cell growth (SRB) (LNCaP-MDV3100-R cells): totally resistant
cell growth (SRB) (c4-2b cells): could not significantly inhibit cell growth
cell growth (SRB) (LNCaP cells): effectively blocked cell growth
tumour growth (22RV1 xenografts): resistant
cell growth (SRB) (22RV1 cells): could not significantly inhibit cell growth
tumour volume (LNCaP xenografts): significantly reduced the tumour volume

C=C1C[C@@]2(O)O[C@@]3(C[C@H]2C(C)C)[C@@H](C)CC[C@@H]13 [Curcumol]
MMTV-luc Activity (%), DHT-induced (AR-FL): 90.0±9.2%
MMTV-luc Activity (%), AR1-651-induced (AR1-651; compound 1 µM): 86.4±7.7%
MMTV-luc Activity (%), AR1-651-induced (AR1-651; [4]): 43.7%

COc1ccc([C@@H]2CC(=O)c3c(O)cc(O[C@@H]4O[C@H](CO[C@@H]5O[C@@H](C)[C@H](O)[C@@H](O)[C@H]5O)[C@@H](O)[C@H](O)[C@H]4O)cc3O2)cc1O [Hesperidin]
MMTV-luc Activity (%), DHT-induced (AR-FL): 85.5±23.9%
MMTV-luc Activity (%), AR1-651-induced (AR1-651; [4]): 110.2±13%

CNC(=O)c1ccc(N2C(=S)N(c3ccc(C#N)c(C(F)(F)F)c3)C(=O)C2(C)C)cc1F [MDV, MDV3100]
PSA mRNA level in the presence of R1881 (PSA mRNA; 22RV1, 10 nM R1881, 10 μM MDV or 0.2 μM AIL): decreased
PSA mRNA level in the absence of R1881 (PSA mRNA; 22RV1, no R1881, 10 μM MDV or 0.2 μM AIL): no effect
cell growth (SRB) (LNCaP-MDV3100-R cells): totally resistant
cell growth (SRB) (c4-2b cells): could not significantly inhibit cell growth
reduction of tumour volume [1]: 15%
cell growth (SRB) (LNCaP cells): effectively blocked cell growth
cell growth (SRB) (22RV1 cells): could not significantly inhibit cell growth
response of xenografts (VCaP xenografts): still responded

CC1(C)CC[C@]2(C(=O)O)CC[C@]3(C)C(=CC[C@@H]4[C@@]5(C)CC[C@H](O)C(C)(C)[C@@H]5CC[C@]43C)[C@@H]2C1 [Oleanic acid]
MMTV-luc Activity (%), DHT-induced (AR-FL): 122.4±7.5%
MMTV-luc Activity (%), AR1-651-induced (AR1-651; [4]): 153.4%

Cc1cc(O)c(C(=O)CCC(C)C)c(=O)o1 [Pogostone]
MMTV-luc Activity (%), DHT-induced (AR-FL): 92.3±13.3%
MMTV-luc Activity (%), AR1-651-induced (AR1-651; [4]): 157.2%

O=Cc1ccc(O)c(O)c1 [Protocatechuic aldehyde]
MMTV-luc Activity (%), DHT-induced (AR-FL): 83.1±0.1%
MMTV-luc Activity (%), AR1-651-induced (AR1-651; [4]): 62.5%

O=c1c(-c2ccc(O)cc2)coc2c([C@@H]3O[C@H](CO)[C@@H](O)[C@H](O)[C@H]3O)c(O)ccc12 [Puerarin]
activity at 10 µM (AR1-651): 80.1 ± 1.8%

O=C(/C=C/c1ccc(O)c(O)c1)O[C@H](Cc1ccc(O)c(O)c1)C(=O)O [Rosmarinic acid]
activity at 10 µM (AR1-651): 115%

C[C@@H]1O[C@@H](OC[C@H]2O[C@@H](Oc3c(-c4ccc(O)c(O)c4)oc4cc(O)cc(O)c4c3=O)[C@H](O)[C@@H](O)[C@@H]2O)[C@H](O)[C@H](O)[C@H]1O [Rutin]
activity at 10 µM (AR1-651): 91.4%

O=C([O-])C(O)Cc1ccc(O)c(O)c1.[Na+] (centres unmarked) [Sodium Danshensu]
MMTV-luc Activity (%), DHT-induced (AR-FL): 93.0±14.7%
MMTV-luc Activity (%), AR1-651-induced (AR1-651; [4]): 73.3%

C=C[C@H]1[C@H](O[C@@H]2O[C@H](CO)[C@@H](O)[C@H](O)[C@H]2O)OC=C2C(=O)OCC[C@]21O [Swertiamain]
MMTV-luc Activity (%), DHT-induced (AR-FL): 80.9±8.5%
MMTV-luc Activity (%), AR1-651-induced (AR1-651; [4]): 64.7±7.5%

Cc1coc2c1C(=O)C(=O)c1c-2ccc2c1CCCC2(C)C [Tanshinone IIA]
activity at 10 µM (AR1-651): 105%

Cc1coc2c1C(=O)C(=O)c1c-2ccc2c(C)cccc12 [Tanshinone I]
activity at 10 µM (AR1-651): 99.9 ± 4.1%

CN1CCc2cc3c(cc2[C@H]1[C@@H]1OC(=O)c2c1ccc1c2OCO1)OCO3 [d-Bicuculline]
MMTV-luc Activity (%), DHT-induced (AR-FL): 75.0±11.5%
MMTV-luc Activity (%), AR1-651-induced (AR1-651; [4]): 112.1%

CC1(C)[C@@H](O)CC[C@]2(C)[C@H]3C(=O)C=C4[C@@H]5C[C@@](C)(C(=O)O)CC[C@]5(C)CC[C@@]4(C)[C@]3(C)CC[C@@H]12 [glycyrrhetic acid]
MMTV-luc Activity (%), DHT-induced (AR-FL): 101.3±11.9%
MMTV-luc Activity (%), AR1-651-induced (AR1-651; [4]): 308.3%

O=C(/C=C/c1ccc(O)c2c1[C@H](C(=O)O[C@H](Cc1ccc(O)c(O)c1)C(=O)O)[C@@H](c1ccc(O)c(O)c1)O2)O[C@H](Cc1ccc(O)c(O)c1)C(=O)O [lithospermic acid B]
MMTV-luc Activity (%), DHT-induced (AR-FL): 115.9±27.9%
MMTV-luc Activity (%), AR1-651-induced (AR1-651; [4]): 96.3±4.2%

O=C(O)C1=C[C@@H](O)[C@@H](O)[C@H](O)C1 [shikimic acid]
activity at 10 µM (AR1-651): 104%

Asiaticoside
MMTV-luc Activity (%), AR1-651-induced (AR1-651; [4]): 150.9%

D-Tanshinone I
MMTV-luc Activity (%), AR1-651-induced (AR1-651; [4]): 138.3%

Myricitrin
MMTV-luc Activity (%), AR1-651-induced (AR1-651; [4]): 102.1%

astragalosideⅠ
MMTV-luc Activity (%), DHT-induced (AR-FL): 117.8±5.2%
MMTV-luc Activity (%), AR1-651-induced (AR1-651; [4]): 87.0±5.2%
